# Data reported in patent US9809521B2, “Cannabidinoid derivatives” (priority 2011, dated 2017).
# Read-outs that look alike come from different tables or passages of the source.
# Columns and labels:
# MDA-MB231 cells [1] = assay: MTT cell proliferation/viability assay; conditions: for reversal of inhibition of cell viability by CB2 receptor antagonist SR14458: 2 days; for IC50: Homo sapiens
# Description: (§1) The structure of O-1442 and O-1663 are almost identical with the exception of one R group. A smaller subset of the same analogs, including O-1442 and O-1663, were further screened for their ability to inhibit 4T1 breast cancer cell viability in anticipation of running in vivo experiments in immune competent mice (TABLE 5).
# (§2) To directly test whether the O-1663 CBD analog could co-target two distinct cannabinoid antitumor pathways, the effects of CBD and the O-1663 CBD analog on cell viability with multiple antagonists were probed (FIG. 25). […] The ability of the O-1663 CBD analog and CBD to inhibit invasion was next compared (FIG. 25, panel C).
# MDA-MB231 cells [2] = assay: Boyden chamber invasion assay; format: cell-based, human; conditions: for IC50: Homo sapiens
# Procedure: Boyden chamber MDA-MB231 cell invasion studies with CBD, Δ^9-THC, or WIN 55,212-2. Invasion is an important step towards breast cancer cell metastasis. Therefore, the effects of several cannabinoids were tested on their ability to modulate the migratory and invasiveness activity of the most aggressive human breast cancer cell line, MDA-MB231, in a reconstituted basement membrane in a Boyden chamber.
# Assays using Id-1 promoter reporter transfected MDA-MB231 cells with CBD. To determine if Id-1 represented a key mediator of CBD effects in highly aggressive breast cancer cells, Id-1 was constitutively expressed into MDA-MB231 cells (+)Id-1 as described in FIG. 2. The ectopic Id-1 gene, which is not under the control of the endogenous promoter, was introduced in the cells using the pLXSN retroviral vector. As a control, cells were infected with an empty pLXSN vector (−)Id-1.
# Boyden chamber MDA-MB231 cell invasion studies with CBD and O-1663 CBD analog. Boyden chamber studies for invasion by MDA-MB231 or U251 cells were performed with either CBD or O-1663 CBD analog.
# as §2
# Id-1 = assay: Quantitative Western analysis of Id-1 protein expression in MDA-MB231 cells; format: cell-based, human; conditions: for Id-1 expression: 1 μM, both MDA-MB231 and 4T1 cells
# Procedure: Quantitative Western analysis of Id-1 Expression in MDA-MB231 cells with CBD, Δ^9-THC, or WIN 55,212-2. The ability of CBD to regulate the expression of key genes that control breast cancer cell aggressiveness and invasiveness was determined.
# SAR Analysis of Id-1 expression in MDA-MB231 cells with (Abn)-CBD receptor, Abn-CBD, O-1602, CP55,940, THC, CBN, or CBD. In order to determine the structure activity relationship (“SAR”) between cannabinoids and the inhibition of Id-1, MDA-MB231 cells were treated for two days with multiple cannabinoid compounds and Id-1 protein levels were assessed.
# Quantitative Western analysis of Id-1 expression in MDA-MB231 cells and U251 cells with CBD or O-1663 CBD analog. […] MDA-MB231 breast cancer cells and U251 GBM cells were treated with 1.0 μM of cannabinoid for two days and then analyzed for Id-1 protein expression by quantitative Western analysis.
# 4T1 cells [3] = assay: 4T1 i.v. mouse model of breast cancer metastasis, treatment from one day after injection; format: in vivo; conditions: for total amount of metastatic foci: 1 mg/kg i.p., 2 days after injection; for effect of CB2 receptor antagonist SR14458 on anti-metastatic activity: 14 days
# Procedure: In-vivo model of breast cancer metastases: 4T1 cells were injected directly into the tail vein of syngeneic BALB/c mice. […] Two days after i.v. injection of 4T1 cells, the tumor bearing mice were injected i.p. once a day with vehicle or compound (1 mg/kg).
# The 4T1 intravenous (i.v.) mouse model of breast cancer metastasis to assess the activity of CBD in vivo was utilized. […] One day after i.v. injection of the breast cancer cells, mice were treated daily for two weeks by intra-peritoneal injection with vehicle (used as a control) or CBD at a dose range of 0.1 to 5 mg/kg.
# A survival study was carried out (FIG. 4, panel C).
# To provide further support for this hypothesis in vivo, mice bearing 4T1 tumors were treated with CBD and the O-1663 CBD analog in the presence of a CB2 receptor antagonist (FIG. 27, panels D and E). […] In addition, a combination treatment with CBD and THC was included.
# In-vivo studies of breast cancer metastases with CBD or O-1663 CBD analog. 4T1 cells were injected into the tail vein of syngeneic BALB/c mice and then were intraperitoneal injected 2 days later with either vehicle, CBD (1 mg/kg), or O-1663 CBD analog (1 mg/kg).
# MDA-MB231 cells [4] = assay: Xenograft mouse model of human breast cancer lung metastasis; format: in vivo
# Procedure: In-vivo metastatic studies using a Xenograph mouse model for human breast cancer with CBD. […] Lung metastases were generated in Nude mice after tail vein injection of 1×10^6 MDA-MB231-luc-D3H2LN cells. One day after the injection, the tumor bearing mice were injected i.p. once a day with vehicle or 0.5 mg/kg and 1 mg/kg CBD for three weeks. Visible lung metastases were then counted and measured by using a dissecting microscope.
# 4T1 cells [5] = assay: Cell viability assay; format: cell-based, mouse; conditions: Mus musculus
# Description: as §1
# ROS = ROS measurement in MDA-MB231 cells; format: cell-based, human; conditions: for generation of ROS: two days, approximate IC50 for CBD and THC
# Description: In culture, CBD-induced generation of ROS is a primary mechanism that leads to inhibition of cell growth, invasion, and survival across multiple cancers. The generation of ROS by CBD leads to the inhibition of Id-1 expression in breast cancer cells. […] The ability of CBD and the O-1663 CBD analog to stimulate the production of ROS was next compared. […] The involvement of CB2 receptors in the productions of ROS produced by CBD and the O-1663 CBD analog was next investigated.
# p8 and LC3 = assay: p8 mRNA and LC3 (autophagy marker) in MDA-MB231 cells; format: cell-based, human; conditions: two days
# U251 cells = assay: MTT cell proliferation assay; conditions: Homo sapiens
# [6] = MDA-MB-231, read-out: IC50, MDA-MB231
compound,measurement,setting,value
CCCCC(C)(C)c1cc(O)c(C2CCC(C3CCCCC3)CC2)c(O)c1 (stereo not shown) [Compound O-1663],reversal of inhibition of cell viability by CB2 receptor antagonist SR14458,MDA-MB231 cells [1]; 4T1 and MDA-MB231 cells,partially reverse the inhibitory effects
same,IC50,MDA-MB231 cells [1]; [6],1.2 µM
same,"fold more active than CBD, MDA-MB231 cell viability",MDA-MB231 cells [1]; second screen,2.2 fold
same,fold more potent than CBD at inhibiting invasion,MDA-MB231 cells [2],1.7 fold
same,invasion by the cancerous cells compared with CBD,"MDA-MB231 cells [2]; 1.0 μM, two days, MDA-MB231 or U251 cells",far superior to CBD in inhibiting invasion
same,IC50,"MDA-MB231 cells [2]; MDA-MB-231, 72 h, read-out: IC50, invasion of MDA-MB231 cells",0.6 µM
same,Id-1 protein expression compared with CBD,"Id-1; 1.0 μM, two days, MDA-MB231 and U251 cells",downregulated Id-1 protein expression to a far greater extent than CBD
same,Id-1 expression,Id-1,almost a complete down-regulation of Id-1 expression
same,animals with a metastatic foci >2 mm,4T1 cells [3]; 1 mg/kg,one of five animals
same,total amount of metastatic foci,4T1 cells [3],reduction of the total amount of metastatic foci
same,effect of CB2 receptor antagonist SR14458 on anti-metastatic activity,4T1 cells [3]; 1 mg/kg,partially reversed by the antagonist
same,fold more potent than CBD at inhibiting lung metastatic foci>2 mm,"4T1 cells [3]; mouse, in vivo",7.0 fold
same,fold more potent than CBD at inhibiting total metastasis,"4T1 cells [3]; mouse, in vivo",2.3 fold
same,"potency compared with CBD, human MDA-MB231 model of metastasis",MDA-MB231 cells [4]; i.p. daily six weeks,more potent than CBD
same,IC50,"4T1 cells [5]; 4T1, read-out: IC50, 4T1 cell viability",0.83 µM
same,ROS reversed in the presence of SR14458,ROS,> 50%
same,generation of ROS,ROS,significantly more potent and efficacious than CBD at generating ROS
same,up-regulation of p8 and LC3,p8 and LC3,able to up-regulate p8 and the marker of autophagy LC3
same,IC50,"U251 cells; U-251, read-out: IC50, U251",0.53 µM
"C=C(C)[C@@H]1CCC(C)=C[C@H]1c1c(O)cc(CCCCC)cc1O [CBD, cannabidiol]",reversal of inhibition of cell viability by CB1 receptor antagonist,MDA-MB231 cells [1]; 4T1 and MDA-MB231 cells,had no effect on reversing the activity of CBD
same,reversal of inhibition of cell viability by ROS scavenger α-TOC,MDA-MB231 cells [1]; 4T1 and MDA-MB231 cells,able to reverse the inhibitory effects of CBD
same,reversal of inhibition of cell viability by CB2 receptor antagonist SR14458,MDA-MB231 cells [1]; 4T1 and MDA-MB231 cells,not significant
same,IC50,"MDA-MB231 cells [1]; MDA-MB-231, 72 h, read-out: IC50, antiproliferative, MDA-MB231",1.3 µM
same,IC50,MDA-MB231 cells [1]; [6],2.2 µM
same,IC50,"MDA-MB231 cells [1]; MDA-MB-231, read-out: IC50, MDA-MB231 cell viability",1.9 µM
same,"cell invasiveness, (+)Id-1 cells","MDA-MB231 cells [2]; 1.5 μM, two days, cells ectopically expressing Id-1",did not inhibit cell invasiveness
same,"cell invasiveness, control (−)Id-1 cells","MDA-MB231 cells [2]; 1.5 μM, two days, empty pLXSN vector",significant reduction in cell invasiveness
same,invasion of MDA-MB231 cells,"MDA-MB231 cells [2]; 0.1, 1.0 or 1.5 μM",significantly reduced the invasion
same,IC50,"MDA-MB231 cells [2]; MDA-MB-231, 72 h, treated 3 days, modified Boyden chambers, read-out: IC50, invasion of MDA-MB231 cells",1 µM
same,IC50,"MDA-MB231 cells [2]; MDA-MB-231, Boyden chamber, confidence limits 110-610, read-out: IC50 for invasion",0.26 µM
same,Id-1 expression,Id-1,partial reduction of Id-1 expression
same,inhibition of Id-1 (structure activity relationship),"Id-1; 1.5 μM, two days",greatest inhibition of Id-1
same,Id-1 protein expression,"Id-1; 0.1, 1.0, 1.5 μM, three days",concentration-dependent inhibition of Id-1 protein expression
same,concentration at which inhibitory effect on Id-1 expression occurred,Id-1; three days,≥ 100 nM
same,median increase in survival,4T1 cells [3]; 1 mg/kg daily from one day after injection,seven
same,total amount of metastatic foci,4T1 cells [3],reduction of the total amount of metastatic foci
same,effect of CB2 receptor antagonist SR14458 on anti-metastatic activity,4T1 cells [3]; 1 mg/kg,not affected by co-administration with SR14458
same,inhibition of total breast cancer metastasis,"4T1 cells [3]; i.p. daily two weeks, 0.1 to 5 mg/kg",up to 75%
same,"EC50, total breast cancer metastasis","4T1 cells [3]; i.p. daily two weeks, CI=0.2-0.5",0.3 mg/kg
same,reduction in the number of metastases,"MDA-MB231 cells [4]; MDA-MB231-luc-D3H2LN, 0.5 mg/kg and 1 mg/kg i.p. for three weeks",≥ 70%
same,IC50,"4T1 cells [5]; 4T1, Table 5, read-out: IC50, 4T1 cell viability",1.8 µM
same,reversal of ROS in the presence of SR14458,ROS,small but significant reversal of ROS
same,generation of ROS,ROS,robust up-regulation of ROS
same,up-regulation of p8 and LC3,p8 and LC3,did not produce up-regulation of p8 and LC3
same,IC50,"U251 cells; U-251, 72 h, read-out: CBD IC50, U251",0.6 µM
same,IC50,"U251 cells; U-251, read-out: IC50, U251",2.9 µM
